Source: patent publication US20250241586A1, “Bioavailability and bioequivalence through intrinsic activity and KD measurements, in vivo, in humans” (priority 2024, published 2025)
Where two headings read alike, the source gives them in different places.

How the values were obtained:
[1] = tested on: benzodiazepine receptors; test: Sleep time in human male volunteers; in vivo KD from reciprocals plot; conditions: for A Free drug**: free drug quantity crossing the blood brain barrier
Protocol: Drug action is measured by the following parameters all measured in vivo in living animals/humans. • A) Onset time and threshold dose/concentration (minimum dose/concentration to initiate the effect,) these indicate the potency of the drug. • B) Intrinsic Activity or the maximum possible effect, • C) Dissociation constant. Its reciprocal measures the affinity of the drug for the receptor. The above named, parameters have been measured as stated below:
The literature also notes that there could be huge differences in in vivo and in vitro values and in such cases in vivo values are to be taken, if available (1). […] A point in this regard is that many drugs act on multiple receptor systems and in such cases the response is to be chosen such that only one receptor system is involved. […] The assumption is valid since the amount of bound drug is negligible compared to the total amount of drug at receptor and may be neglected. […] Alprazolam was administered to human male volunteers with sound health, of average weight and having normal creatinine clearance in the doses of 4 mcg/kg, 6 mcg/kg and 8 mcg/kg, and onset and sleep times noted. • The amount of free drug crossing the blood brain barrier was obtained.

[2] = biological target: K+ channels of the beta cells of the pancreas (Homo sapiens, UniProt Q09428); conditions: for KD: in vivo in humans, from slope of 1/fractional response vs 1/A plot
[3] = in vitro and cell culture; read-out: KD literature values; cited from earlier work

Sequence of K+ channels of the beta cells of the pancreas (Q09428 whole entry): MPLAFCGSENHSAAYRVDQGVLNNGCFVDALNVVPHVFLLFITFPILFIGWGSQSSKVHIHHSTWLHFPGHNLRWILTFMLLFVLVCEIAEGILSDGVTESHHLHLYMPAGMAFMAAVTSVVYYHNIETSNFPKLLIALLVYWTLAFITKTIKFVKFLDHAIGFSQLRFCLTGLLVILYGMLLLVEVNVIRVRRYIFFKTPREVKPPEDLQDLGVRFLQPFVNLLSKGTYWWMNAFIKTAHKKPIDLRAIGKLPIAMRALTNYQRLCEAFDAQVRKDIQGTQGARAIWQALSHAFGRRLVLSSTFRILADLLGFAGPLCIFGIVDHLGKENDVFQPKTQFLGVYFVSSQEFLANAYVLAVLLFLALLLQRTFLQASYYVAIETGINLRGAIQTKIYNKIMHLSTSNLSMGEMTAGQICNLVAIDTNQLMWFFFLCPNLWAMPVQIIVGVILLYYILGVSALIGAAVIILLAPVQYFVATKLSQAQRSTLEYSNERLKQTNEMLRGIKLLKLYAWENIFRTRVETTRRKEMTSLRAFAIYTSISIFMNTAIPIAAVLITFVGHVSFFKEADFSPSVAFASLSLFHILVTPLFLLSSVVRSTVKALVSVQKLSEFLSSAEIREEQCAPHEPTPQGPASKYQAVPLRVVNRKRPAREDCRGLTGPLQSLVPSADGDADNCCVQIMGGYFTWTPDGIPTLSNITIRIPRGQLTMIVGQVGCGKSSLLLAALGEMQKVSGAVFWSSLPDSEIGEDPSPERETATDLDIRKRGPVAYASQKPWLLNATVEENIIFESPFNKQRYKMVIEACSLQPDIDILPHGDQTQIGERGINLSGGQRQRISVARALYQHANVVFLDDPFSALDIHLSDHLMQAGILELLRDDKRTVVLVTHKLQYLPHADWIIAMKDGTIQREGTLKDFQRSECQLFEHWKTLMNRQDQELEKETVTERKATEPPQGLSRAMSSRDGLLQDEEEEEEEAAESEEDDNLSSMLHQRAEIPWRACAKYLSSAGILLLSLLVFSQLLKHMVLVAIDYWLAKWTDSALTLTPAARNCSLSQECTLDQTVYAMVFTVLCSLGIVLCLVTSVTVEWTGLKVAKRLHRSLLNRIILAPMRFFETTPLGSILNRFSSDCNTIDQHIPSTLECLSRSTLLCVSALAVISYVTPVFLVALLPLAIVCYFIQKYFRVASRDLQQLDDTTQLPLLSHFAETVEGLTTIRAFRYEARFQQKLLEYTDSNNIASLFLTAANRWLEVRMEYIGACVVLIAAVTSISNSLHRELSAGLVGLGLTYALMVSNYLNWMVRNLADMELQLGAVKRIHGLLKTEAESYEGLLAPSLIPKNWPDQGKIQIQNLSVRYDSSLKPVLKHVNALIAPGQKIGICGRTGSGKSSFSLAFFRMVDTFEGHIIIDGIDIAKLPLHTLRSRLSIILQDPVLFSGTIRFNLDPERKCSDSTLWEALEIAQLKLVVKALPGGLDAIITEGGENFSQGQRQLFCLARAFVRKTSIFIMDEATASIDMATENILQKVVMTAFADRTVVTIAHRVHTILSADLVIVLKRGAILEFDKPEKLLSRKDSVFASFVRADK
Sequence of K+ channels of the beta cells of the pancreas (Q14654 whole entry partner): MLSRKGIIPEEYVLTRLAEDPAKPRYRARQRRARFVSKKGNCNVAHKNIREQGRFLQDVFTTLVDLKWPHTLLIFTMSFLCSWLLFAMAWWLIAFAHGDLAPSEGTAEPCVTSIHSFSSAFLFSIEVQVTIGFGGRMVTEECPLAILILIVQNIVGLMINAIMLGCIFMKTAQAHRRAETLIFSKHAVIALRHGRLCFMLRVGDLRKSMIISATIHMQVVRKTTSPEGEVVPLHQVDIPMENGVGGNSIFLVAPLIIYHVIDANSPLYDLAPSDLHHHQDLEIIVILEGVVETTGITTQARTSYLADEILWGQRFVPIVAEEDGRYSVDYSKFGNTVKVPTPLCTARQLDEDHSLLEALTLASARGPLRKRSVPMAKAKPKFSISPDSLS

Cc1nnc2n1-c1ccc(Cl)cc1C(c1ccccc1)=NC2 [Alprazolam, alprazolam]
1/A ([1]; alprazolam dose 4 Mcg/kg): 225.8
1/Fractional response ([1]; alprazolam dose 4 Mcg/kg): 3.8
Response sleep time ([1]; alprazolam dose 4 Mcg/kg): 63 min
A Free drug** ([1]; alprazolam dose 4 Mcg/kg): 0.0044 Mcg/ml
1/A ([1]; alprazolam dose 6 Mcg/kg): 151.4
1/Fractional response ([1]; alprazolam dose 6 Mcg/kg): 2.4
Response sleep time ([1]; alprazolam dose 6 Mcg/kg): 100 min
A Free drug** ([1]; alprazolam dose 6 Mcg/kg): 0.0066 Mcg/ml
1/A ([1]; alprazolam dose 8 Mcg/kg): 49.8
1/Fractional response ([1]; alprazolam dose 8 Mcg/kg): 1.0
Response sleep time ([1]; alprazolam dose 8 Mcg/kg): 241 min
A Free drug** ([1]; alprazolam dose 8 Mcg/kg): 0.0088 Mcg/ml
Threshold dose ([1]; humans): 4 mcg/kg bodyweight
Kd ([1]; in vivo in humans, response sleep time, free drug crossing the blood brain barrier, slope of reciprocals plot): 0.0508 µM

CCC1=C(C)CN(C(=O)NCCc2ccc(S(=O)(=O)NC(=O)N[C@H]3CC[C@H](C)CC3)cc2)C1=O [Glimepride, glimepride]
1/Fractional response ([2]; glimepride dose 5 Mcg/kg): 17.24
Response AUC reduction ([2]; glimepride dose 5 Mcg/kg): 30 mg·h/dL
1/Fractional response ([2]; glimepride dose 10 Mcg/kg): 4.48
Response AUC reduction ([2]; glimepride dose 10 Mcg/kg): 115 mg·h/dL
1/Fractional response ([2]; glimepride dose 20 Mcg/kg): 1.0
Response AUC reduction ([2]; glimepride dose 20 Mcg/kg): 514 mg·h/dL
KD [2]: KD = 2.018 nM
KD ([2]; listed as glimepride): 0.002 µM
Threshold dose ([2]; point of inflection of log dose response curve, humans): 5 mcg/kg body weight

Cc1cnc(C(=O)NCCc2ccc(S(=O)(=O)NC(=O)NC3CCCCC3)cc2)cn1 [Glipizide, glipizide]
KD [2]: KD = 8.98 nM
KD ([2]; listed as glipizide): 0.00898 µM
Kd [3]: ~0.01 µM
